What was measured:
[1] = tested on: RKO human colon adenocarcinoma cells (RKOp27), uninduced; assay: Alamar Blue cell viability assay, RKO p27 uninduced (proliferating cells); assay type: cell-based; details: 72 hours, read-out: Anti-proliferative/cytotoxic activity, -log IC50, RKO p27 uninduced (converted)
Method: The anti-proliferative/cytotoxic activity of the compounds described herein can be tested on subclones of RKO human colon adenocarcinoma cells (Schmidt et al., Oncogene 19, 2423-2429; 2000) using the Alamar Blue cell viability assay (described in O'Brien et al. Eur J Biochem 267, 5421-5426, 2000). The compounds are dissolved as 10 mM solutions in DMSO and subsequently diluted in semi-logarithmic steps. DMSO dilutions are further diluted 1:100 into Dulbecco's modified Eagle's medium (DMEM) containing 10% fetal calf serum to a final concentration twice as much as the final concentration in the test. RKO subclones are seeded into 96 well flat bottom plates at a density of 4000 cells per well in a volume of 50 μl per well. 24 hours after seeding the 50 μl each of the compound dilutions in DMEM medium are added into each well of the 96 well plate. Each compound dilution is tested as quadruplicates. Wells containing untreated control cells are filled with 50 μl DMEM medium containing 1% DMSO. […] To determine the viability of the cells, 10 μl of an Alamar Blue solution (Biosource) are added and the fluorescence is measured at an extinction of 544 nm and an emission of 590 nm. […] Viabilities are expressed as % values.
The corresponding IC50 values of the compounds for anti-proliferative/cytotoxic activity are determined from the concentration-effect curves.
To determine the cell cycle specific mode of action, subclones of RKO colon adenocarcinoma cells (RKOp27 as described by Schmidt et al. in Oncogene 19, 2423-2429; 2000) are seeded into 96 well flat bottom plates at a density of 16000 cells per well in a volume of 50 μl per well in DMEM growth medium with 10% FCS containing 10 μM Ponasterone A. 24 hours after seeding the 50 μl each of the compound dilutions in DMEM medium are added into each well of the 96-well plate. […] To determine the viability of the cells, 10 μl of an Alamar Blue solution (Biosource) are added and the fluorescence is measured at an extinction of 544 nm and an emission of 590 nm. […] Viabilities are expressed as % values. […]

[2] = tested on: NCl-H460 non-small cell lung cancer cells; assay: Mitotic spindle malformation by confocal laser scanning microscopy; assay type: cell-based; details: 1 μM, 24 hours, anti-alpha tubulin and Hoechst 33342 staining
Method: Experimental perturbation of Eg5 function causes a characteristic malformation of the mitotic spindle, which can be examined by confocal laser scanning microscopy. NCl-H460 non-small cell lung cancer cells are grown overnight on glass cover slips (Nunc™ Lab-Tek™ Chamber Slides) in 1800 μl DMEM medium containing 10% fetal calf serum. The test compounds are dissolved as 10 mM solutions in DMSO. Appropriate DMSO dilutions of the test compounds are further diluted 1:10 into DMEM medium containing 10% fetal calf serum to a final concentration ten times as much as the final concentration in the test. 24 hours after seeding, 200 μl of the compound dilutions in DMEM medium are added into each well of the cover slip. As a control, 200 μl DMEM medium containing 10% DMSO are added. 24 hours after incubation with the test compounds, the cells are washed with PBS, and fixed with 3.7% formaldehyde in H2O for 20 min. at 37° C. Subsequently, cells are washed with PBS and incubated with 0.1% Triton X-100 in a buffer containing 1.471 mM KH2PO4, 8.504 mM Na2HPO4, 137 mM NaCl, 1.325 mM CaCl2, 2.685 mM KCl, 0.542 mM MgCl2, pH 7.2 for 15 min. at room temperature. […]

[3] = tested on: RKO colon adenocarcinoma cells (RKOp27), arrested by p27Kip1 induced by Ponasterone A; assay: Alamar Blue cell viability assay, RKO p27 induced by Ponasterone A (arrested cells); assay type: cell-based; details: Homo sapiens, RKO p27 induced (10 μM Ponasterone A), 72 hours, read-out: Anti-proliferative/cytotoxic activity, -log IC50, RKO p27 induced (converted)
Method: To determine the cell cycle specific mode of action, subclones of RKO colon adenocarcinoma cells (RKOp27 as described by Schmidt et al. in Oncogene 19, 2423-2429; 2000) are seeded into 96 well flat bottom plates at a density of 16000 cells per well in a volume of 50 μl per well in DMEM growth medium with 10% FCS containing 10 μM Ponasterone A. 24 hours after seeding the 50 μl each of the compound dilutions in DMEM medium are added into each well of the 96-well plate. Each compound dilution is tested as quadruplicates. Wells containing untreated control cells are filled with 50 μl DMEM medium containing 1% DMSO. The cells are then incubated with the substances for 72 hours at 37° C. in a humidified atmosphere containing 5% carbon dioxide. To determine the viability of the cells, 10 μl of an Alamar Blue solution (Biosource) are added and the fluorescence is measured at an extinction of 544 nm and an emission of 590 nm. For the calculation of the cell viability the emission value from untreated cells is set as 100% viability and the emission rates of treated cells are set in relation to the values of untreated cells. Viabilities are expressed as % values. Viability is compared of proliferating cells grown in the absence of the inducer Ponasterone A, versus viability of cells arrested by the expression of ectopic p27Kip1 induced by Ponasterone A.

[4] = tested on: RKOp27 colon cancer cells; assay: Induction of apoptosis, Cell death detection ELISA; assay type: cell-based; details: Homo sapiens, 24 hours, relative to 50 μM cisplatin = 100 cpu, read-out: Apoptosis Induction, -log EC50 (converted)
Method: The induction of apoptosis can be measured by using a Cell death detection ELISA (Roche Biochemicals, Mannheim, Germany). RKOp27 colon cancer cells are seeded into 96 well flat bottom plates at a density of 10000 cells per well in a volume of 50 μl RPMI medium (containing 10% fetal calf serum) per well. 24 hours after seeding the 50 μl each of the compound dilutions in RPMI medium are added into each well of the 96 Well plate. Each compound dilution is tested at least as triplicates. Wells containing untreated control cells are filled with 50 μl RPMI medium containing 1% DMSO. The cells are then incubated with the substances for 24 hours at 37° C. in a humidified atmosphere containing 5% carbon dioxide. As a positive control for the induction of apoptosis, cells are treated with 50 μM Cisplatin (Gry Pharmaceuticals, Kirchzarten, Germany). Medium is then removed and the cells are lysed in 200 μl lysis buffer. After centrifugation as described by the manufacturer, 10 μl of cell lysate is processed as described in the protocol. The degree of apoptosis is calculated as follows: The absorbance at 405 nm obtained with lysates from cells treated with 50 μM cisplatin is set as 100 cpu (cisplatin units), while an absorbance at 405 nm of 0.0 was set as 0.0 cpu. The degree of apoptosis is expressed as cpu in relation to the value of 100 cpu reached with the lysates obtained from cells treated with 50 μM cisplatin. The corresponding EC50 values of the compounds for apoptosis inducing activity are determined from the concentration-effect curves.

SMILES | melting point | IC50 [1] | Mitotic arrest / mitotic spindle phenotype [2] | IC50 [3] | EC50 [4]
CN1C(=O)C2Cc3c(sc4ccccc34)C(c3cccc(O)c3)N2C1=O [Example 3, (3aS,10R)-10-(3-Hydroxy-phenyl)-2-methyl-4,10-dihydro-3aH-9-thia-2,10-diaza-cyclopenta[b]fluorene-1,3-dione] | 213.3 to 216.4 °C | ≤ 0.631 µM | significant enrichment of cells arrested in mitosis | ≥ 100 µM | ≤ 2.51 µM
CN1C(=O)N2[C@H](c3cccc(O)c3)c3sc4ccccc4c3C[C@@]2(C)C1=O (racemic) [Example 5, (3aSR,10RS)-10-(3-Hydroxy-phenyl)-2,3a-dimethyl-4,10-dihydro-3aH-9-thia-2,10a-diaza-cyclopenta[b]fluorene-1,3-dione] |  |  |  |  | ≤ 2.51 µM
CN1C(=O)N2C(c3cccc(O)c3)c3[nH]c4ccccc4c3CC2(C)C1=O (racemic) [Example 1, (±)-(3aSR,10RS)-10-(3-Hydroxy-phenyl)-2,3a-dimethyl-3a,4,9,10-tetrahydro-2,9,10a-triaza-cyclopenty[b]fluorene-1,3-dione] | 299 to 305 °C | ≤ 0.631 µM | significant enrichment of cells arrested in mitosis | ≥ 100 µM | ≤ 2.51 µM
CN1C(=O)N2[C@H](c3cccc(O)c3)c3[nH]c4ccccc4c3C[C@@]2(C)C1=O [Example 2, (3aS,10R)-10-(3-Hydroxy-phenyl)-2,3a-dimethyl-3a,4,9,10-tetrahydro-2,9,10a-triaza-cyclopenty[b]fluorene-1,3-dione] |  | ≤ 0.631 µM |  | ≥ 100 µM | ≤ 2.51 µM
